{
  "source": "patent US9421181B2",
  "about": "“Antihypoxic pharmaceutical composition and application thereof” (CHANGZHOU HI-TECH DISTRICT MULTIPLE DIMENSION INDUSTRY …, priority 2013, dated 2016)",
  "key": {"[1]": {"system": "mice model of acute brain hypoxia", "assay": "Mice model of acute brain hypoxia: breathing time after decollation", "type": "in vivo, Kunming mice", "details": "intragastric once a day 7 days", "procedure": "(§1) Randomly group 70 Kunming male mice into 7 groups: control group, group of L-carnitine 450 mg/kg, group of trimetazidine 9 mg/kg, group of vinpocetine 1.5 mg/kg, group of L-carnitine 450+trimetazidine 9 mg/kg, group of trimetazidine 9+vinpocetine 1.5 mg/kg, and group of L-carnitine 450+trimetazidine 9+vinpocetine 1.5 mg/kg, with each group of 10 mice. Administer […] preparation intragastrically to the mice of experimental groups, and the same volume of normal saline to control group once a day for consecutive 7 days. One hour after the last administration, behead the mice immediately from behind the ear, and stopwatch the breathing time of mice after their decollation."}, "brain tissue of the mice": {"system": "brain tissue of the mice", "assay": "Content of EAA (Glu, Asp, GABA, Gly) in brain tissue after decollation", "type": "in vivo, Kunming mice", "details": "intragastric 7 days", "procedure": "as §1\nBiochemical indicator test of brain tissue: After death of the mice, immediately get their brain tissues in ice bath, wash them in ice saline to remove the residual blood, and then add ice […] according to the proportion of 1:9. Under the condition of ice bath, high-speed homogenate machine (10 s per times, at intervals of 15 s for 4 times) is used to make the brain tissue into 10% cerebral homogenate. Centrifuge the homogenate under the temperature of 4° C. with the speed of 2000 r/min for 5 min to separate the supernatant, and detect the content of glutamic acid (Glu), aspartic acid (Asp), aminobutyric acid (GABA), and glycine (Gly) in the brain tissue of the mice by amino acid analyzer. After brain injury, the content of Glu, Asp, GABA and Gly, etc. (representatives of the excitatory amino acid (EAA)) in the brain is higher. In particular, one of the important mechanisms that could cause the death of secondary brain injury neurons is the excessive release of Glu. An important reason that leads to delayed neuronal death is the cascade of damage due to calcium overload in the neurons, which is caused by the activation of receptor N-methyl-D-aspartate (NMDA) by Glu. The degree to which the mitochondrial function is damaged determines the death method of neurons [Clemens J A, Stephenson D T, Smalsting E B. Global ischemia activate nuclear. Storke, 1997, 28:1073-1076]."}, "[2]": {"system": "mice under the condition of normobaric hypoxia", "assay": "Hypoxia tolerance and survival time of mice under normobaric hypoxia (sealed bottle with soda lime)", "type": "in vivo", "details": "intragastric once a day 7 days", "procedure": "Choose 100 male mice with weight of 20±2 g, randomly group them into 10 by weight with each group of 10 mice, and then inject 10 ml/kg preparation to experimental groups, and the same volume of normal saline to control group by tail intravenous injection once a day for consecutive 7 days. One hour after the last injection, put each mouse into a 160 ml wild-mouth bottle, into which 5 g soda lime has been pre-added, and then seal tightly the caps with petroleum jelly. Record survival time of the mice with death as the indicator.\nChoose 80 male mice with weight of 20±2 g, randomly group them into 8 by weight with each group of 10 mice, and then administer 20 ml/kg preparation intragastrically to the mice of experimental groups, and the same volume of normal saline to control group once a day for consecutive 7 days. One hour after the last administration, put each mouse into a 160 ml wild-mouth bottle, into which 5 g soda lime has been pre-added, and then seal tightly the caps with petroleum jelly. Record survival time of the mice with death as the indicator.\nChoose 40 male mice with weight of 20±2 g, randomly group them into 4 by weight with each group of 10 mice, and then administer 20 ml/kg preparation intragastrically to the mice of experimental groups, and the same volume of normal saline to control group once a day for consecutive 7 days. One hour after the last administration, put each mouse into a 160 ml wild-mouth bottle, into which 5 g soda lime has been pre-added, and then seal tightly the caps with petroleum jelly. Record survival time of the mice with death as the indicator.\nChoose 370 male mice with weight of 20±2 g, randomly group them into 37 by weight with each group of 10 mice, and then inject 10 ml/kg preparation to experimental groups, and the same volume of normal saline to control group once a day for consecutive 7 days. One hour after the last injection, put each mouse into a 160 ml wild-mouth bottle, into which 5 g soda lime has been pre-added, and then seal tightly the caps with petroleum jelly. Record survival time of the mice with death as the indicator."}},
  "note": "Where a name gives a salt, the structure may show the parent alone.",
  "data": [
    {"molecule": "C[N+](C)(C)C[C@H](O)CC(=O)[O-]", "note": "[L-carnitine]", "values": [
      {"measurement": "Breathing Time after Decollation", "setting": "[1]; L-carnitine 450 mg/kg", "result": "18.6 ± 1.2", "unit": "S"},
      {"measurement": "Asp content in brain tissue", "setting": "brain tissue of the mice; L-carnitine 450 mg/kg", "result": "15.68 ± 4.23", "unit": "µmol/L"},
      {"measurement": "GABA content in brain tissue", "setting": "brain tissue of the mice; L-carnitine 450 mg/kg", "result": "3.71 ± 1.11", "unit": "µmol/L"},
      {"measurement": "Glu content in brain tissue", "setting": "brain tissue of the mice; L-carnitine 450 mg/kg", "result": "18.45 ± 1.22", "unit": "µmol/L"},
      {"measurement": "Gly content in brain tissue", "setting": "brain tissue of the mice; L-carnitine 450 mg/kg", "result": "3.54 ± 1.29", "unit": "µmol/L"},
      {"measurement": "Prolonged Survival Time", "setting": "[2]; L-carnitine 450 mg/kg alone", "result": 31.6, "unit": "%"},
      {"measurement": "Survival Time", "setting": "[2]; L-carnitine 450 mg/kg alone", "result": "29.6 ± 3.6", "unit": "min"}
    ]},
    {"molecule": "COc1ccc(CN2CCNCC2)c(OC)c1OC", "note": "[Trimetazidine, trimetazidine hydrochloride]", "values": [
      {"measurement": "Breathing Time after Decollation", "setting": "[1]; trimetazidine 9 mg/kg", "result": "18.5 ± 2.1", "unit": "S"},
      {"measurement": "Asp content in brain tissue", "setting": "brain tissue of the mice; trimetazidine 9 mg/kg", "result": "15.21 ± 2.06", "unit": "µmol/L"},
      {"measurement": "GABA content in brain tissue", "setting": "brain tissue of the mice; trimetazidine 9 mg/kg", "result": "3.44 ± 1.12", "unit": "µmol/L"},
      {"measurement": "Glu content in brain tissue", "setting": "brain tissue of the mice; trimetazidine 9 mg/kg", "result": "17.02 ± 0.99", "unit": "µmol/L"},
      {"measurement": "Gly content in brain tissue", "setting": "brain tissue of the mice; trimetazidine 9 mg/kg", "result": "3.49 ± 1.12", "unit": "µmol/L"}
    ]},
    {"molecule": "CCOC(=O)C1=C[C@]2(CC)CCCN3CCc4c(n1c1ccccc41)[C@@H]32", "note": "[Vinpocetine, vinpocetine]", "values": [
      {"measurement": "Breathing Time after Decollation", "setting": "[1]; vinpocetine 1.5 mg/kg", "result": "19.5 ± 1.5", "unit": "S"},
      {"measurement": "Asp content in brain tissue", "setting": "brain tissue of the mice; vinpocetine 1.5 mg/kg", "result": "15.46 ± 2.21", "unit": "µmol/L"},
      {"measurement": "GABA content in brain tissue", "setting": "brain tissue of the mice; vinpocetine 1.5 mg/kg", "result": "3.15 ± 1.05", "unit": "µmol/L"},
      {"measurement": "Glu content in brain tissue", "setting": "brain tissue of the mice; vinpocetine 1.5 mg/kg", "result": "19.12 ± 2.01", "unit": "µmol/L"},
      {"measurement": "Gly content in brain tissue", "setting": "brain tissue of the mice; vinpocetine 1.5 mg/kg", "result": "3.82 ± 1.84", "unit": "µmol/L"},
      {"measurement": "Prolonged Survival Time", "setting": "[2]; vinpocetine 1.5 mg/kg alone", "result": 13.6, "unit": "%"},
      {"measurement": "Survival Time", "setting": "[2]; vinpocetine 1.5 mg/kg alone", "result": "25.1 ± 4.8", "unit": "min"}
    ]}
  ]
}
